Laboratory results from PubChem BioAssay (NCI).
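These data come from cells grown in 96-well plates and exposed to compound for 48 hours at five concentrations. At the TGI there is no net growth.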

Experiments:
Test in all cases: NCI tumour cell line growth inhibition, 48 h
SK-OV-3 ovarian = test system: SK-OV-3 ovarian
HCT-15 colon = test system: HCT-15 colon
CAKI-1 renal = test system: CAKI-1 renal
TK-10 renal = test system: TK-10 renal
SF-539 CNS = test system: SF-539 CNS
SNB-78 CNS = test system: SNB-78 CNS
SF-268 CNS = test system: SF-268 CNS
DLD-1 colon = test system: DLD-1 colon
SK-MEL-5 melanoma = test system: SK-MEL-5 melanoma
NCI-H23 lung = test system: NCI-H23 lung
MALME-3M melanoma = test system: MALME-3M melanoma
786-0 renal = test system: 786-0 renal
LOX IMVI melanoma = test system: LOX IMVI melanoma
NCI-H522 lung = test system: NCI-H522 lung
NCI-H226 lung = test system: NCI-H226 lung
SN12C renal = test system: SN12C renal
M19-MEL melanoma = test system: M19-MEL melanoma
HOP-18 NSCLC = test system: HOP-18 NSCLC
DMS 273 small cell lung = test system: DMS 273 small cell lung
UO-31 renal = test system: UO-31 renal
KM12 colon = test system: KM12 colon
XF 498 CNS = test system: XF 498 CNS
U251 CNS = test system: U251 CNS
MOLT-4 leukemia = test system: MOLT-4 leukemia
SK-MEL-28 melanoma = test system: SK-MEL-28 melanoma
UACC-62 melanoma = test system: UACC-62 melanoma
EKVX NSCLC = test system: EKVX NSCLC
SF-295 CNS = test system: SF-295 CNS
M14 melanoma = test system: M14 melanoma
SK-MEL-2 melanoma = test system: SK-MEL-2 melanoma
HT29 colon = test system: HT29 colon
SNB-19 CNS = test system: SNB-19 CNS
DMS 114 small cell lung = test system: DMS 114 small cell lung
A549 NSCLC = test system: A549 NSCLC
RPMI-8226 leukemia = test system: RPMI-8226 leukemia
HOP-62 NSCLC = test system: HOP-62 NSCLC
HCT-116 colon = test system: HCT-116 colon
RXF 393 renal = test system: RXF 393 renal
K-562 leukemia = test system: K-562 leukemia
COLO 205 colon = test system: COLO 205 colon
HOP-92 NSCLC = test system: HOP-92 NSCLC
HCC-2998 colon = test system: HCC-2998 colon
OVCAR-3 ovarian = test system: OVCAR-3 ovarian
KM20L2 colon = test system: KM20L2 colon
LXFL 529 NSCLC = test system: LXFL 529 NSCLC
SW-620 colon = test system: SW-620 colon
SNB-75 CNS = test system: SNB-75 CNS
ACHN renal = test system: ACHN renal
NCI-H460 lung = test system: NCI-H460 lung
CCRF-CEM leukemia = test system: CCRF-CEM leukemia
OVCAR-4 ovarian = test system: OVCAR-4 ovarian
OVCAR-8 ovarian = test system: OVCAR-8 ovarian
UACC-257 melanoma = test system: UACC-257 melanoma
HL-60(TB) leukemia = test system: HL-60(TB) leukemia
IGROV1 ovarian = test system: IGROV1 ovarian

`COc1cc2cc3c4c(cc(OC)c(OC)c4c2cc1OC)CCN3` showed a TGI (SK-OV-3 ovarian) greater than 100 µM, a TGI (HCT-15 colon) greater than 100 µM and a TGI (CAKI-1 renal) greater than 100 µM. The TGI (TK-10 renal) was greater than 100 µM, the TGI (SF-539 CNS) was 51.1 µM and the TGI (SNB-78 CNS) was greater than 100 µM. For the same compound, the TGI (SF-268 CNS) was greater than 100 µM, the TGI (DLD-1 colon) was 73.8 µM and the TGI (SK-MEL-5 melanoma) was greater than 100 µM. For the same compound, the TGI (NCI-H23 lung) was greater than 100 µM, the TGI (MALME-3M melanoma) was greater than 100 µM and the TGI (786-0 renal) was greater than 100 µM. It also gave a TGI (LOX IMVI melanoma) greater than 100 µM, a TGI (NCI-H522 lung) greater than 100 µM and a TGI (NCI-H226 lung) greater than 100 µM. The TGI (SN12C renal) was greater than 100 µM, the TGI (M19-MEL melanoma) was 25.6 µM and the TGI (HOP-18 NSCLC) was greater than 100 µM. The TGI (DMS 273 small cell lung) was greater than 100 µM, the TGI (UO-31 renal) was greater than 100 µM and the TGI (KM12 colon) was greater than 100 µM. The TGI (XF 498 CNS) was greater than 100 µM, the TGI (U251 CNS) was greater than 100 µM and the TGI (MOLT-4 leukemia) was greater than 100 µM. It also gave a TGI (SK-MEL-28 melanoma) greater than 100 µM, a TGI (UACC-62 melanoma) of 19.5 µM and a TGI (EKVX NSCLC) greater than 100 µM. For the same compound, the TGI (SF-295 CNS) was greater than 100 µM, the TGI (M14 melanoma) was greater than 100 µM and the TGI (SK-MEL-2 melanoma) was 59.7 µM. The TGI (HT29 colon) was 96.2 µM, the TGI (SNB-19 CNS) was greater than 100 µM and the TGI (DMS 114 small cell lung) was greater than 100 µM. It also gave a TGI (A549 NSCLC) greater than 100 µM, a TGI (RPMI-8226 leukemia) of 68 µM and a TGI (HOP-62 NSCLC) greater than 100 µM. It also gave a TGI (HCT-116 colon) greater than 100 µM, a TGI (RXF 393 renal) of 85.8 µM and a TGI (K-562 leukemia) of 81.6 µM. It also gave a TGI (COLO 205 colon) of 63.2 µM, a TGI (HOP-92 NSCLC) greater than 100 µM and a TGI (HCC-2998 colon) greater than 100 µM. The TGI (OVCAR-3 ovarian) was greater than 100 µM, the TGI (KM20L2 colon) was 88.5 µM and the TGI (LXFL 529 NSCLC) was greater than 100 µM. It also gave a TGI (SW-620 colon) of 51.2 µM, a TGI (SNB-75 CNS) greater than 100 µM and a TGI (ACHN renal) greater than 100 µM. It also gave a TGI (NCI-H460 lung) of 82.6 µM, a TGI (CCRF-CEM leukemia) of 77.2 µM and a TGI (OVCAR-4 ovarian) greater than 100 µM. For the same compound, the TGI (OVCAR-8 ovarian) was greater than 100 µM, the TGI (UACC-257 melanoma) was greater than 100 µM and the TGI (HL-60(TB) leukemia) was 42.3 µM. The TGI (IGROV1 ovarian) was greater than 100 µM.
With `COCN1C(=O)C2CC(/C=C/C(N)=O)=CN2C(=O)c2ccccc21` (configuration not stated) the TGI (SK-OV-3 ovarian) was greater than 100 µM, the TGI (TK-10 renal) was greater than 100 µM and the TGI (SF-539 CNS) was greater than 100 µM. The TGI (SNB-78 CNS) was greater than 100 µM, the TGI (SF-268 CNS) was greater than 100 µM and the TGI (DLD-1 colon) was greater than 100 µM. For the same compound, the TGI (SK-MEL-5 melanoma) was greater than 100 µM, the TGI (NCI-H23 lung) was greater than 100 µM and the TGI (786-0 renal) was greater than 100 µM. It also gave a TGI (LOX IMVI melanoma) greater than 100 µM, a TGI (NCI-H522 lung) greater than 100 µM and a TGI (NCI-H226 lung) greater than 100 µM. It also gave a TGI (SN12C renal) greater than 100 µM, a TGI (M19-MEL melanoma) greater than 100 µM and a TGI (HOP-18 NSCLC) greater than 100 µM. For the same compound, the TGI (DMS 273 small cell lung) was greater than 100 µM, the TGI (KM12 colon) was greater than 100 µM and the TGI (XF 498 CNS) was greater than 100 µM. The TGI (U251 CNS) was greater than 100 µM, the TGI (MOLT-4 leukemia) was greater than 100 µM and the TGI (SK-MEL-28 melanoma) was greater than 100 µM. For the same compound, the TGI (UACC-62 melanoma) was greater than 100 µM, the TGI (EKVX NSCLC) was greater than 100 µM and the TGI (SF-295 CNS) was greater than 100 µM. For the same compound, the TGI (M14 melanoma) was greater than 100 µM, the TGI (HT29 colon) was greater than 100 µM and the TGI (SNB-19 CNS) was greater than 100 µM. For the same compound, the TGI (DMS 114 small cell lung) was greater than 100 µM, the TGI (A549 NSCLC) was greater than 100 µM and the TGI (RPMI-8226 leukemia) was greater than 100 µM. The TGI (HOP-62 NSCLC) was greater than 100 µM, the TGI (HCT-116 colon) was greater than 100 µM and the TGI (RXF 393 renal) was greater than 100 µM. For the same compound, the TGI (K-562 leukemia) was greater than 100 µM, the TGI (COLO 205 colon) was greater than 100 µM and the TGI (HCC-2998 colon) was greater than 100 µM. For the same compound, the TGI (OVCAR-3 ovarian) was greater than 100 µM, the TGI (KM20L2 colon) was greater than 100 µM and the TGI (LXFL 529 NSCLC) was greater than 100 µM. It also gave a TGI (SW-620 colon) greater than 100 µM, a TGI (SNB-75 CNS) greater than 100 µM and a TGI (NCI-H460 lung) greater than 100 µM. The TGI (CCRF-CEM leukemia) was greater than 100 µM, the TGI (OVCAR-4 ovarian) was greater than 100 µM and the TGI (OVCAR-8 ovarian) was greater than 100 µM. It also gave a TGI (HL-60(TB) leukemia) greater than 100 µM and a TGI (IGROV1 ovarian) greater than 100 µM.
